Read-outs that look alike come from different tables or passages of the source. Blank lines part the entries; values can stand above or below the compound they belong to.
Biological target: T1, human p38 kinase alpha (Homo sapiens, UniProt Q16539)
T1 construct: GST (N, cleaved yes); made in house; host or cells: E. coli DH10B
Assay: p38 kinase in vitro assay, phosphorylation of biotinylated PHAS-I with 32P-ATP
Assay type: biochemical
Conditions: for IC50: read-out: P38 alpha kinase IC50; for inhibition at 1 µM: read-out: P38 alpha kinase % inhib @ conc.

[1] = in vitro P38-alpha kinase inhibition

T1 sequence (Q16539 whole entry): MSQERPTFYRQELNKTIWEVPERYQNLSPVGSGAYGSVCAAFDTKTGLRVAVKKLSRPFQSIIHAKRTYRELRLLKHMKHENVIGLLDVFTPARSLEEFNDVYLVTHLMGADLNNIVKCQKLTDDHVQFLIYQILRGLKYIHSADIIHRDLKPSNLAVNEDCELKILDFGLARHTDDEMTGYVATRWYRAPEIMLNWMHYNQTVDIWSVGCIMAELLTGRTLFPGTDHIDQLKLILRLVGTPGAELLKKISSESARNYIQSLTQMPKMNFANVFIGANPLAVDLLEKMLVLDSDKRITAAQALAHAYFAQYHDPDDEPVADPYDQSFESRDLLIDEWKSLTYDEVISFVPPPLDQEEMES

Compound: CNC(=O)CCC(NC(=O)c1ccccc1I)c1[nH]nc(-c2ccc(F)cc2)c1-c1ccncc1 (stereo not shown) [Example B-0861]
IC50 [1]: 1320 nM

Compound: Cc1ccc(C(=O)NCCc2[nH]nc(-c3ccc(F)cc3)c2-c2ccncc2)cc1 [Example B-1002]
P38 alpha kinase % inhib @ conc. (uM) (@ 1.0 uM): 70.0% @

Compound: Cc1ccc(C(=O)NC(Cc2ccccc2)c2[nH]nc(-c3ccc(F)cc3)c2-c2ccncc2)cc1 (stereo not shown) [Example B-0850]
IC50 [1]: 1810 nM

Compound: Cc1ccc(C(=O)NCCCc2[nH]nc(-c3ccc(F)cc3)c2-c2ccncc2)cc1 [Example B-1179]
P38 alpha kinase % inhib @ conc. (uM) (@ 1.0 uM): 86.0% @

Compound: CCN(CC)C(=O)NCCc1[nH]nc(-c2ccc(F)cc2)c1-c1ccncc1 [Example B-1048]
P38 alpha kinase % inhib @ conc. (uM) (@ 1.0 uM): 67.0% @

Compound: O=C(NCCc1[nH]nc(-c2ccc(F)cc2)c1-c1ccncc1)Nc1ccc(F)cc1 [Example B-1034]
P38 alpha kinase % inhib @ conc. (uM) (@ 1.0 uM): 66.0% @

Compound: CC(NS(=O)(=O)c1ccc(-c2ccccn2)s1)c1[nH]nc(-c2ccc(F)cc2)c1-c1ccncc1 (stereo not shown) [Example B-0660]
IC50 [1]: 88 nM

Compound: COc1cccc(CC(=O)NCc2[nH]nc(-c3ccc(F)cc3)c2-c2ccncc2)c1 [Example B-0040]
inhibition at 1 µM (@ 1.0 uM): 93%

Compound: O=C(NCCc1[nH]nc(-c2ccc(F)cc2)c1-c1ccncc1)Nc1ccccc1 [Example B-1043]
P38 alpha kinase % inhib @ conc. (uM) (@ 1.0 uM): 64.0% @

Compound: O=S(=O)(NCCCc1[nH]nc(-c2ccc(F)cc2)c1-c1ccncc1)c1ccccc1 [Example B-1191]
P38 alpha kinase % inhib @ conc. (uM) (@ 1.0 uM): 74.0% @

Compound: O=C(NCc1[nH]nc(-c2ccc(F)cc2)c1-c1ccncc1)C(c1ccccc1)c1ccccc1 [Example B-0032]
inhibition at 1 µM (@ 1.0 uM): 94%

Compound: O=S(=O)(NCCc1[nH]nc(-c2ccc(F)cc2)c1-c1ccncc1)c1cccc2cccnc12 [Example B-1071]
IC50 [1]: < 100 nM

Compound: O=C(NC(Cc1ccccc1)c1[nH]nc(-c2ccc(F)cc2)c1-c1ccncc1)C1CCC1 (stereo not shown) [Example B-0804]
IC50 [1]: 300 nM

Compound: O=S(=O)(Cc1ccccc1)NCCc1[nH]nc(-c2ccc(F)cc2)c1-c1ccncc1 [Example B-1017]
P38 alpha kinase % inhib @ conc. (uM) (@ 1.0 uM): 96.0% @

Compound: O=S(=O)(NCCCc1[nH]nc(-c2ccc(F)cc2)c1-c1ccncc1)c1cccs1 [Example B-1203]
P38 alpha kinase % inhib @ conc. (@ 1.0 uM): 84.0% @

Compound: O=C(NCc1[nH]nc(-c2ccc(F)cc2)c1-c1ccncc1)c1ccc([N+](=O)[O-])cc1 [Example B-0022]
inhibition at 1 µM (@ 1.0 uM): 69%

Compound: CC(C)S(=O)(=O)NC(Cc1ccccc1)c1[nH]nc(-c2ccc(F)cc2)c1-c1ccncc1 (stereo not shown) [Example B-0754]
IC50 [1]: 550 nM

Compound: CC(NC(=O)c1cnc2ccccc2n1)c1[nH]nc(-c2ccc(F)cc2)c1-c1ccncc1 (stereo not shown) [Example B-0561]
IC50 [1]: 2070 nM

Compound: O=S(=O)(NCCCc1[nH]nc(-c2ccc(F)cc2)c1-c1ccncc1)c1ccc(F)cc1F [Example B-1195]
P38 alpha kinase % inhib @ conc. (uM) (@ 1.0 uM): 52.0% @

Compound: O=C(NCCCc1[nH]nc(-c2ccc(F)cc2)c1-c1ccncc1)N1CCCC1 [Example B-1209]
P38 alpha kinase % inhib @ conc. (@ 1.0 uM): 86.0% @

Compound: O=C(NCCc1[nH]nc(-c2ccc(F)cc2)c1-c1ccncc1)c1c(F)cccc1C(F)(F)F [Example B-1137]
IC50 [1]: 38 nM

Compound: O=C(NCCCc1[nH]nc(-c2ccc(F)cc2)c1-c1ccncc1)N1CCOCC1 [Example B-1210]
P38 alpha kinase % inhib @ conc. (@ 1.0 uM): 82.0% @

Compound: O=S(=O)(NC(Cc1ccccc1)c1[nH]nc(-c2ccc(F)cc2)c1-c1ccncc1)c1ccccc1F (stereo not shown) [Example B-0759]
IC50 [1]: 300 nM

Compound: CC(NC(=O)c1cc(C(F)(F)F)ccc1F)c1[nH]nc(-c2ccc(F)cc2)c1-c1ccncc1 (stereo not shown) [Example B-0683]
IC50 [1]: 13000 nM

Compound: O=C(NCCCc1[nH]nc(-c2ccc(F)cc2)c1-c1ccncc1)[C@H]1CCCN1 [Example B-1233]
P38 alpha kinase % inhib @ conc. (@ 1.0 uM): 85.0% @

Compound: CC(Oc1ccccc1)C(=O)NC(Cc1ccccc1)c1[nH]nc(-c2ccc(F)cc2)c1-c1ccncc1 (stereo not shown) [Example B-0857]
IC50 [1]: 6250 nM

Compound: CN(C)C(=O)NCCCc1[nH]nc(-c2ccc(F)cc2)c1-c1ccncc1 [Example B-1212]
P38 alpha kinase % inhib @ conc. (@ 1.0 uM): 90.0% @

Compound: O=S(=O)(NCCc1[nH]nc(-c2ccc(F)cc2)c1-c1ccncc1)c1cccc2ccccc12 [Example B-1069]
IC50 [1]: 220 nM

Compound: C=CCNC(=O)NCCc1[nH]nc(-c2ccc(F)cc2)c1-c1ccncc1 [Example B-1040]
P38 alpha kinase % inhib @ conc. (uM) (@ 1.0 uM): 72.0% @

Compound: Cc1ccc(S(=O)(=O)NC(Cc2ccccc2)C(=O)NC(Cc2ccccc2)c2[nH]nc(-c3ccc(F)cc3)c2-c2ccncc2)cc1 (stereo not shown) [Example B-0859]
IC50 [1]: 39500 nM

Compound: CC(NS(=O)(=O)c1cccc(C(F)(F)F)c1)c1[nH]nc(-c2ccc(F)cc2)c1-c1ccncc1 (stereo not shown) [Example B-0648]
IC50 [1]: < 100 nM

Compound: O=S(=O)(NCCc1[nH]nc(-c2ccc(F)cc2)c1-c1ccncc1)c1ccc(-c2ccccc2)cc1 [Example B-1109]
IC50 [1]: 54 nM

Compound: Cc1cccc(S(=O)(=O)NC(C)c2[nH]nc(-c3ccc(F)cc3)c2-c2ccncc2)c1 (stereo not shown) [Example B-0638]
IC50 [1]: 250 nM

Compound: Cc1cccc(C)c1NC(=O)NC(Cc1ccccc1)c1[nH]nc(-c2ccc(F)cc2)c1-c1ccncc1 (stereo not shown) [Example B-0733]
IC50 [1]: 32000 nM

Compound: O=S(=O)(NCCc1[nH]nc(-c2ccc(F)cc2)c1-c1ccncc1)c1c(Cl)cccc1Cl [Example B-1081]
IC50 [1]: < 100 nM

Compound: C=CCOC(=O)NC(Cc1ccccc1)c1[nH]nc(-c2ccc(F)cc2)c1-c1ccncc1 (stereo not shown) [Example B-0833]
IC50 [1]: 950 nM

Compound: CC(NS(=O)(=O)c1ccccc1C(F)(F)F)c1[nH]nc(-c2ccc(F)cc2)c1-c1ccncc1 (stereo not shown) [Example B-0635]
IC50 [1]: 150 nM

Compound: Cc1ccc(S(=O)(=O)NC(Cc2ccccc2)c2[nH]nc(-c3ccc(F)cc3)c2-c2ccncc2)cc1 (stereo not shown) [Example B-0766]
IC50 [1]: 950 nM

Compound: Cn1cnc(S(=O)(=O)NCCc2[nH]nc(-c3ccc(F)cc3)c2-c2ccncc2)c1 [Example B-1114]
IC50 [1]: 69 nM

Compound: CC(NC(=O)c1cc(F)ccc1F)c1[nH]nc(-c2ccc(F)cc2)c1-c1ccncc1 (stereo not shown) [Example B-0697]
IC50 [1]: 450 nM

Compound: CCC(Oc1ccccc1)C(=O)NCc1[nH]nc(-c2ccc(F)cc2)c1-c1ccncc1 (stereo not shown) [Example B-0047]
inhibition at 1 µM (@ 1.0 uM): 94%

Compound: CC(NS(=O)(=O)c1ccccc1F)c1[nH]nc(-c2ccc(F)cc2)c1-c1ccncc1 (stereo not shown) [Example B-0569]
IC50 [1]: 150 nM

Compound: O=C(NCCc1[nH]nc(-c2ccc(F)cc2)c1-c1ccncc1)N1CCOCC1 [Example B-1033]
P38 alpha kinase % inhib @ conc. (uM) (@ 1.0 uM): 86.0% @

Compound: O=C(Cc1cccs1)NCCCc1[nH]nc(-c2ccc(F)cc2)c1-c1ccncc1 [Example B-1228]
P38 alpha kinase % inhib @ conc. (@ 1.0 uM): 90.0% @

Compound: O=C(NCCc1[nH]nc(-c2ccc(F)cc2)c1-c1ccncc1)Nc1ccccc1F [Example B-1038]
P38 alpha kinase % inhib @ conc. (uM) (@ 1.0 uM): 57.0% @

Compound: C[C@@H](NS(=O)(=O)c1cccc(Cl)c1Cl)c1[nH]nc(-c2ccc(F)cc2)c1-c1ccncc1 [Example B-0445]
IC50 [1]: < 100 nM

Compound: CC(C)(C)C(=O)NCCc1[nH]nc(-c2ccc(F)cc2)c1-c1ccncc1 [Example B-1052]
P38 alpha kinase % inhib @ conc. (uM) (@ 1.0 uM): 69.0% @

Other lines, results leading:

IC50 (in vitro P38-alpha kinase): 9 nM
Compound: NS(=O)(=O)c1ccc(CCNC(=O)NCCCc2[nH]nc(-c3ccc(F)cc3)c2-c2ccncc2)cc1 [Example B-1307]

P38 alpha kinase % inhib @ conc. (@ 10.0 uM): 49.0% @
Compound: Cc1c(-c2ccncc2)c(-c2ccc(F)cc2)nn1CC(=O)NC1CCCCC1 [Example B-2347]

IC50 (in vitro P38-alpha kinase): 280 nM
Compound: O=C(c1cc(C(F)(F)F)ccc1F)N1CCC(c2[nH]nc(-c3ccc(F)cc3)c2-c2ccncc2)CC1 [Example B-1405]

P38 alpha kinase % inhib @ conc. (@ 10.0 uM): 69.0% @
Compound: Cc1c(-c2ccncc2)c(-c2ccc(F)cc2)nn1CC(=O)NC1Cc2ccccc2C1 [Example B-2321]

IC50 (in vitro P38-alpha kinase): 32 nM
Compound: N#Cc1cccc(C(=O)NCCCc2[nH]nc(-c3ccc(F)cc3)c2-c2ccncc2)c1 [Example B-1328]

IC50 (in vitro P38-alpha kinase): 400 nM
Compound: O=C(NCCCc1[nH]nc(-c2ccc(F)cc2)c1-c1ccncc1)c1ccc(C(F)(F)F)cc1F [Example B-1337]

IC50 (in vitro P38-alpha kinase): 24 nM
Compound: Cc1ccccc1C(=O)N1CCC(c2[nH]nc(-c3ccc(F)cc3)c2-c2ccncc2)CC1 [Example B-1400]

IC50 (in vitro P38-alpha kinase): 14 nM
Compound: Cc1cccc(C(=O)NCCCc2[nH]nc(-c3ccc(F)cc3)c2-c2ccncc2)c1 [Example B-1344]

IC50 (in vitro P38-alpha kinase): 97 nM
Compound: Cn1cnc(S(=O)(=O)NCCCc2[nH]nc(-c3ccc(F)cc3)c2-c2ccncc2)c1 [Example B-1291]

IC50 (in vitro P38-alpha kinase): 70 nM
Compound: Cc1c(-c2ccncc2)c(-c2ccc(F)cc2)nn1CC(=O)NCCCCc1ccccc1 [Example B-2300]

IC50 (in vitro P38-alpha kinase): 430 nM
Compound: CCc1ccc(S(=O)(=O)NCCCc2[nH]nc(-c3ccc(F)cc3)c2-c2ccncc2)cc1 [Example B-1265]

P38 alpha kinase IC50, uM or % inhib @ conc. (uM): % inhib (@ 100.0 uM): 58% @
Compound: Cc1c(-c2ccncc2)c(-c2ccc(F)cc2)nn1CC(=O)N(CCC#N)CC1CCCO1 (stereo not shown) [Example B-2404]

P38 alpha kinase IC50, uM or % inhib @ conc. (uM): % inhib (@ 10.0 uM): 88.0% @
Compound: Cc1c(-c2ccncc2)c(-c2ccc(F)cc2)nn1CC(=O)Nc1ccc(Cl)cc1 [Example B-2418]

IC50 (in vitro P38-alpha kinase): 2290 nM
Compound: Cc1c(-c2ccncc2)c(-c2ccc(F)cc2)nn1CC(=O)NCCCN1CCCC1 [Example B-2307]

IC50 (in vitro P38-alpha kinase): 120 nM
Compound: O=S(=O)(NCCCc1[nH]nc(-c2ccc(F)cc2)c1-c1ccncc1)c1ccc(Cl)s1 [Example B-1278]

IC50 (in vitro P38-alpha kinase): 160 nM
Compound: O=S(=O)(NCCCc1[nH]nc(-c2ccc(F)cc2)c1-c1ccncc1)c1ccc(F)cc1Cl [Example B-1254]

IC50 (in vitro P38-alpha kinase): 59 nM
Compound: N#Cc1ccc(C(=O)N2CCC(c3[nH]nc(-c4ccc(F)cc4)c3-c3ccncc3)CC2)cc1 [Example B-1392]

IC50 (in vitro P38-alpha kinase): < 100 nM
Compound: COc1ccc(Br)cc1S(=O)(=O)NCCCc1[nH]nc(-c2ccc(F)cc2)c1-c1ccncc1 [Example B-1279]

IC50 (in vitro P38-alpha kinase): < 100 nM
Compound: O=C(c1cc(F)cc(C(F)(F)F)c1)N1CCC(c2[nH]nc(-c3ccc(F)cc3)c2-c2ccncc2)CC1 [Example B-1409]

IC50 (in vitro P38-alpha kinase): 430 nM
Compound: COc1ccc(Cl)cc1S(=O)(=O)N1CCC(c2[nH]nc(-c3ccc(F)cc3)c2-c2ccncc2)CC1 [Example B-1445]

P38 alpha kinase IC50, uM or % inhib @ conc. (uM): % inhib (@ 10.0 uM): 33.0% @
Compound: Cc1c(-c2ccncc2)c(-c2ccc(F)cc2)nn1CC(=O)N1Cc2ccsc2CC1c1ccc(Cl)cc1 (stereo not shown) [Example B-2410]

IC50 (in vitro P38-alpha kinase): 120 nM
Compound: Cc1ccc(F)cc1S(=O)(=O)NCCCc1[nH]nc(-c2ccc(F)cc2)c1-c1ccncc1 [Example B-1256]

IC50 (in vitro P38-alpha kinase): 1000 nM
Compound: O=S(=O)(c1cccc2nonc12)N1CCC(c2[nH]nc(-c3ccc(F)cc3)c2-c2ccncc2)CC1 [Example B-1436]
